Values quoted from earlier work as cited in EP2697366B1, “B[…] THE PRESERVATION OF CELLULAR FUN[…] CLINICAL CELL THERAPY” (Johann Wolfgang Goethe-Universität, Frankfurt am Main, priority 2011, dated 2018).

Key:
[1] = in vivo
[2] = two large clinical studies

Question: For `CC[C@H](C)[C@H](NC(=O)[C@H](CCC(=O)O)NC(=O)[C@H](CCC(=O)O)NC(=O)[C@H](Cc1ccccc1)NC(=O)[C@H](CC(=O)O)NC(=O)CNC(=O)[C@H](CC(N)=O)NC(=O)CNC(=O)CNC(=O)CNC(=O)CNC(=O)[C@@H]1CCCN1C(=O)[C@H](CCCNC(=N)N)NC(=O)[C@@H]1CCCN1C(=O)[C@H](N)Cc1ccccc1)C(=O)N1CCC[C@H]1C(=O)N[C@@H](CCC(=O)O)C(=O)N[C@@H](CCC(=O)O)C(=O)N[C@@H](Cc1ccc(O)cc1)C(=O)N[C@@H](CC(C)C)C(=O)O` [Bivalirudin], which Eliminationshalbwertszeit [1] is on record?
Answer: ca. 25 Minuten

Question: And the “schwere Blutungskomplikationen” value [2]?
Answer: hochsignifikanten Reduktion schwerer Blutungskomplikationen
